The test system of data set [1] is Bacillus subtilis No. 10707. Briefly: Anti-bacterial activity, minimum inhibitory concentration by agar dilution method. The data set is classed as cell-based. The following applies: pH=7.0. The protocol:
(§1) Minimum inhibitory concentration (μg/ml) was measured by the agar dilution method using a medium (pH=7.0) which was prepared by dissolving Bactotryptone medium (3 g; commercial product of Difco, U.S.A.), meat extract (3 g), yeast extract (1 g), glucose (1 g) and agar (16 g) in water (1 l).

In data set [2] the test system is Candida albicans ATCC 10231. The data set is described as above. The data set is classed as cell-based. The following applies: ATCC10231, pH=7.0. On the procedure:
as §1

Data set [3] relates to Enterococcus faecium ATCC 10541. Described as above. The data set is classed as cell-based. The following applies: ATCC10541, pH=7.0. The protocol:
as §1

The next data set has as its system Escherichia coli ATCC 26. The data set is described as above. The class given is cell-based. Conditions: ATCC26, pH=7.0. On the procedure: as §1
Data set [4] relates to Klebsiella pneumonia ATCC 10031. The description is as above. The class given is cell-based. Conditions: Klebsiella pneumoniae, ATCC10031, pH=7.0. The protocol: as §1
The subject of data set [5] is Pseudomonas aeruginosa Bin H No. 1. The description is as above. The data set is classed as cell-based. The following applies: pH=7.0. The protocol:
as §1

The test system of data set [6] is Salmonella typhi ATCC 9992. The description is as above. The class given is cell-based. The following applies: Salmonella enterica, read-out: Minimum inhibitory concentration. On the procedure:
as §1

Data set [7] concerns Shigella sonnei ATCC 9290. The data set is described as above. The data set is classed as cell-based. Conditions: ATCC9290, pH=7.0. The protocol:
as §1

For data set [8], the system named is Staphylococcus aureus ATCC 6538P. The data set is described as above. The class given is cell-based. The following applies: ATCC6538P, pH=7.0. The protocol:
as §1

For another data set, the system named is MCF7 cells (ATCC HTB22). Briefly: Anti-tumour activity, MCF7 cell growth inhibition (neutral red). Conditions: Homo sapiens, 72 hours, 37° C., absorptivity at 550 nm. The data set is classed as cell-based. On the procedure: MCF7 cells (ATCC HTB22) was add to RPMI-1640 medium (commercial product of Gibco, U.S.A.) containing 10 % fetal calf serum, insulin (10 μg/ml) and estradiol (10^-8 M) (hereinafter referred to as medium A) to prepare a cell suspension containing 4.5×10^4 cell/ml.
On each occasion, 0.1 ml of the suspension was poured into each well of a 96 well microtitre plate and incubated at a temperature of 37° C. for 20 hours in a carbon dioxide incubator. Then a test compound (each 0.05 ml) was added to each well, followed by incubation similarly for 72 hours. After removal of the supernatant, another medium (0.1 ml) containing medium A and 0.02% neutral red was added to the material for incubating similarly for one hour to dye the cells. The supernatant was removed, and the residue was washed once with physiological Saline. Then the dyestuff was removed by using an aqueous solution of ethanol (30%) containing 0.001N hydrochloric acid.
The absorptivity at 550 nm of the material was measured by the use of a microplate reader. The absorptivity of the treated cells was compared with the absorptivity of untreated cells to measure the IC50 value viz. the concentration of the test compound required to inhibit the growth of the cells by 50%.

Data set [9] in a line: Solubility in various solvents. Conditions: for Solubility in various solvents (soluble): organic solvents; for Solubility in various solvents (insoluble): water, n-hexane where named. The data set is classed as physicochemical.

Converted amounts (≈) assume the structure as drawn. Some results are limits rather than exact numbers.

Consider `CCCCC(C)/C=C(C)/C=C(\C)C(=O)NC1=CC(O)(/C=C/C=C/C=C/C(=O)NC2=C(O)CCC2=O)C2OC2C1=O` (stereo not shown) [Manumycin, reference compound], for which the MIC in data set [1] was 0.3 µg/mL (≈ 0.545 µM); in [2] it was 21 µg/mL (≈ 38.1 µM); in data set [3] it was 2.6 µg/mL (≈ 4.72 µM); in the data set with Escherichia coli ATCC 26, above 100 µg/mL; in data set [4], above 100 µg/mL; in data set [5], above 100 µg/mL. In addition, the MIC was above 100 µg/mL in [6], above 100 µg/mL in data set [7] and 1.3 µg/mL (≈ 2.36 µM) in [8]. In the data set on MCF7 cells (ATCC HTB22), this compound came in with an IC50 of 8.3 µg/mL (≈ 15.1 µM).
For `CCCCC(C)/C=C(\C)C(=O)NC1=CC(=O)C2OC2C1=O` (stereo not shown) [UCF1-AX], the MIC worked out at 1.3 µg/mL (≈ 4.46 µM) in [1]; 10 µg/mL (≈ 34.3 µM) in data set [2]; 10 µg/mL (≈ 34.3 µM) in [3]; 21 µg/mL (≈ 72.1 µM) in the data set with Escherichia coli ATCC 26; 21 µg/mL (≈ 72.1 µM) in data set [4]; 83 µg/mL (≈ 285 µM) in data set [5]. In addition, the MIC was found to be 21 µg/mL (≈ 72.1 µM) in data set [6], 10 µg/mL (≈ 34.3 µM) in data set [7] and 10 µg/mL (≈ 34.3 µM) in [8]. The half-maximal inhibitory concentration (IC50) in the data set on MCF7 cells (ATCC HTB22) was 18.9 µg/mL (≈ 64.9 µM). Moreover, the “Solubility in various solvents (soluble)” value in [9] was “Soluble in chloroform, methanol and diethyl ether”. Moreover, in data set [9], the “Solubility in various solvents (insoluble)” value (“Solubility … (insoluble)” for short) is given as “Insoluble in water”.
In the case of `CCCCC(C)/C=C(\C)C(=O)NC1=CC(O)(/C=C/C=C/C=C/C(=O)NC2=C(O)CCC2=O)C2OC2C1=O` (stereo not shown) [UCF1-A], the MIC is 10 µg/mL (≈ 19.6 µM) in [1]; above 100 µg/mL in data set [2]; 10 µg/mL (≈ 19.6 µM) in [3]; above 100 µg/mL with Escherichia coli ATCC 26; above 100 µg/mL in data set [4]; above 100 µg/mL in data set [5]. Besides, the MIC in data set [6] is above 100 µg/mL; in [7] it was above 100 µg/mL; in [8] it was 2.6 µg/mL (≈ 5.09 µM). In the data set with MCF7 cells (ATCC HTB22), the IC50 came to 12.5 µg/mL (≈ 24.5 µM). Moreover, the “Solubility in various solvents (soluble)” value in [9] was “Soluble in chloroform, dimethylsulfoxide, ethyl acetate, methanol and acetone”. Also, the “Solubility … (insoluble)” value in data set [9] is “Insoluble in n-hexane and water”.
In the case of `CCCCC(C)/C=C(C)/C=C/C(=O)NC1=CC(=O)C2OC2C1=O` (stereo not shown) [UCF1-BX], the MIC in data set [1] is 0.16 µg/mL (≈ 0.504 µM); in data set [2], 42 µg/mL (≈ 132 µM); in data set [3], 0.65 µg/mL (≈ 2.05 µM); with Escherichia coli ATCC 26, above 100 µg/mL; in data set [4], above 100 µg/mL; in data set [5] it was 83 µg/mL (≈ 262 µM). In addition, the figures for the MIC in data set [6], in [7] and in data set [8] were above 100 µg/mL, above 100 µg/mL and 8.3 µg/mL (≈ 26.2 µM), respectively. The compound further displayed a 50% inhibitory concentration (IC50) in the data set on MCF7 cells (ATCC HTB22) of 7.5 µg/mL (≈ 23.6 µM). Further, the “Solubility in various solvents (soluble)” value in data set [9] was “Soluble in chloroform, methanol and diethyl ether”. Moreover, the “Solubility … (insoluble)” value in [9] is given as “Insoluble in water”.
Turning to `CCCCC(C)/C=C(C)/C=C/C(=O)NC1=CC(O)(/C=C/C=C/C=C/C(=O)NC2=C(O)CCC2=O)C2OC2C1=O` (stereo not shown) [UCF1-B], the MIC is 1.3 µg/mL (≈ 2.42 µM) in data set [1]; above 100 µg/mL in [2]; 10 µg/mL (≈ 18.6 µM) in data set [3]; above 100 µg/mL against Escherichia coli ATCC 26; above 100 µg/mL in data set [4]; above 100 µg/mL in data set [5]. Further, the figures for the MIC in data set [6], in data set [7] and in data set [8] were above 100 µg/mL, above 100 µg/mL and 2.6 µg/mL (≈ 4.85 µM), respectively. This compound also showed a half-inhibitory concentration (IC50) with MCF7 cells (ATCC HTB22) of 7.3 µg/mL (≈ 13.6 µM). Also, the “Solubility in various solvents (soluble)” value in [9] was “Soluble in chloroform, dimethylsulfoxide, ethyl acetate, methanol and acetone”. For the same compound, in [9], the “Solubility … (insoluble)” value is “Insoluble in n-hexane and water”.
